Patent publication US20060241163A1, “Optically active (S)-hydantoin derivative” (priority 2005, published 2006)

How the values were obtained:
SD-strain rats = assay: Acute toxicity test, single intravenous administration; type: in vivo; settings: once administered intravenously, SD-strain rats 6 weeks age
Protocol: In an acute toxicity test where (±)-5-hydroxy-1-methylhydantoin was once administered intravenously to SD-strain rats (6 weeks age), there was no dead case even when the dose was 2,000 mg/kg, and so the lethal dose of the unchanged compound was presumed to be not less than 2,000 mg/kg. In the same toxicity test however, a lethal dose of the metabolite 1 was about 150 to 300 mg/kg. […] Furthermore, it was observed that the racemate caused the decrease of general symptoms such as passivity, tactile reaction, pain sensation reaction and ipsilateral flexor reaction at a dose of 200 mg/kg.

mice = assay: Minimum doses for expression of general symptoms after single oral administration; type: in vivo
[1] = test system: rat in which renal insufficiency was induced by adenine; assay: Suppression of creatinine increase in adenine-induced renal insufficiency model rats; type: in vivo, Wistar-strain male rats
Description: Adenine was orally administered to Wistar-strain male rats of eight weeks age to prepare a renal insufficiency model. […] Further, a value of creatinine clearance (mL/kg/hr) decreased from 315.3±13.8 to 25.7±4.4 whereupon renal functions lowered to about one-tenth.
From the 7th to the 17th days from administration of adenine, the test drug was orally administered to the rat in which renal insufficiency was induced by adenine. The creatinine levels in blood before and after the administration of the test drug were compared whereupon a suppressive action of the test drug to an increase of creatinine accompanied by the progress of renal insufficiency was checked. In a control group where no test drug was administered, an increase of creatinine to an extent of 4.37±0.76 mg/dL was noted while, in a group to which (S)-(−)-5-hydroxy-1-methylhydantoin (200 mg/kg/day) was administered, an increase of creatinine was suppressed to an extent of 2.72±0.55 mg/dL.

[2] = Pharmacokinetics in blood (unchanged compound and metabolites in plasma) in renal insufficiency model rats; type: in vivo; settings: 100 mg/kg oral once, 23rd day from administration of adenine; compared with R-form and racemate; FIG. 1 and FIG. 2
Protocol: After each 100 mg/kg of (S)-(−)-5-hydroxy-1-methylhydantoin, (R)-(+)-5-hydroxy-1-methylhydantoin, and racemate thereof was orally administered once to the above-mentioned model rats of renal insufficiency (on the 23rd day from administration of adenine), changes in concentration of an unchanged compound and metabolites (metabolite 1: 1-methylimidazolidintrion and metabolite 2: 5-methyloxaluric acid) in plasma were checked.

CN1C(=O)NC(=O)C1O (racemic) [racemate, (±)-5-hydroxy-1-methylhydantoin, reference compound]
lethal dose (SD-strain rats): not less than 2,000 mg/kg
dose causing decrease of general symptoms (passivity, tactile reaction, pain sensation reaction, ipsilateral flexor reaction) (mice; general symptoms observation, single oral administration to mice): 200 mg/kg

CN1C(=O)NC(=O)[C@H]1O [R-form, (R)-(+)-5-hydroxy-1-methylhydantoin]
dose for expression of general symptoms as compared with the S-form (mice; mouse, in vivo, po): one-fifth

CN1C(=O)NC(=O)[C@@H]1O [S-form, (S)-(−)-5-hydroxy-1-methylhydantoin]
increase of creatinine in blood ([1]; 200 mg/kg/day oral, 7th to 17th days from administration of adenine, control group 4.37±0.76 mg/dL): 2.72 ± 0.55 mg/dL
suppressive action to renal insufficiency ([1]; adenine renal insufficiency rats, oral, compared with racemate): suppressive action to renal insufficiency the same as the racemate
conversion to metabolites (metabolite 1 and metabolite 2) in plasma [2]: rarely converted to its metabolites
dose causing decrease of general symptoms (passivity, tactile reaction, pain sensation reaction, ipsilateral flexor reaction) (mice; mouse, in vivo, po): 500 mg/kg

CN1C(=O)NC(=O)C1=O [metabolite 1, 1-methylimidazolidintrion]
lethal dose (SD-strain rats): 150 to 300 mg/kg
